The source of these data is article PMC8563733, “The transcriptional corepressor CtBP2 serves as a metabolite sensor orchestrating hepatic glucose and lipid homeostasis” (Nature Communications, 2021).

In test [1] the target is T1, CtBP2 (C-terminal binding protein 2) (Homo sapiens, UniProt P56545).
T1 construct: full-length CtBP2 with strep-tag and HA-tag tandemly fused to the C-terminus (baculovirus)
The test can be described thus: microscale thermophoresis; supported by DSF (Kd […]).

Test [2] has as its target T1, CtBP2 (C-terminal binding protein 2). The description is as above. The source holds these as a separate data set.

Each structure is given as a SMILES string. Like-named read-outs stand apart in the source and are kept apart here.

For `NC(=O)C1=CN([C@@H]2O[C@H](COP(=O)(O)OP(=O)(O)OC[C@H]3O[C@@H](n4cnc5c(N)ncnc54)[C@H](O)[C@@H]3O)[C@@H](O)[C@H]2O)C=CC1` [NADH], in test [1], binding was put at a Kd of 19.5 ± 6.61 µM.

The molecule `CCCCCCCC/C=C\CCCCCCCC(=O)SCCNC(=O)CCNC(=O)[C@H](O)C(C)(C)COP(=O)(O)OP(=O)(O)OC[C@H]1O[C@@H](n2cnc3c(N)ncnc32)[C@H](O)[C@@H]1OP(=O)(O)O` [oleoyl-CoA] came in with a Kd in test [2] of 18.8 ± 1.28 µM.
